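At the GI50, growth is halved. TGI is the concentration that stops growth completely.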
Columns and labels:
Experiment in all cases: DTP human tumour cell line panel, 384-well format
[1] = system: NCI/ADR-RES ovarian
[2] = system: SF-268 CNS
[3] = system: BT-549 breast
[4] = system: MOLT-4 leukemia
[5] = system: MDA-MB-468 breast
[6] = system: COLO 205 colon
[7] = system: HT29 colon
[8] = system: NCI-H226 lung
[9] = system: HL-60(TB) leukemia
[10] = system: SW-620 colon
[11] = system: U251 glioblastoma
[12] = system: SK-OV-3 ovarian
[13] = system: SF-539 CNS
[14] = system: K-562 leukemia
[15] = system: RPMI-8226 leukemia
[16] = system: 786-0 renal
[17] = system: MCF7 breast
[18] = system: SNB-75 CNS
[19] = system: HCC-2998 colon
[20] = system: MDA-MB-435 melanoma
[21] = system: NCI-H522 lung
[22] = system: CAKI-1 renal
[23] = system: SK-MEL-2 melanoma
[24] = system: EKVX NSCLC
[25] = system: UACC-257 melanoma
[26] = system: PC-3 prostate
[27] = system: OVCAR-8 ovarian
[28] = system: A498 renal
[29] = system: SK-MEL-5 melanoma
[30] = system: TK-10 renal
[31] = system: SNB-19 CNS
[32] = system: OVCAR-4 ovarian
[33] = system: NCI-H322M lung
[34] = system: HOP-62 NSCLC
[35] = system: M14 melanoma
[36] = system: RXF 393 renal
[37] = system: NCI-H23 lung
[38] = system: UACC-62 melanoma
[39] = system: MALME-3M melanoma
[40] = system: HOP-92 NSCLC
[41] = system: HCT-15 colon
[42] = system: NCI-H460 NSCLC
[43] = system: ACHN renal
[44] = system: KM12 colon
[45] = system: HS 578T breast
[46] = system: LOX IMVI melanoma
[47] = system: SN12C renal
[48] = system: SK-MEL-28 melanoma
[49] = system: A549 NSCLC
[50] = system: HCT-116 colon
[51] = system: IGROV1 ovarian
[52] = system: OVCAR-3 ovarian
[53] = system: DU-145 prostate
[54] = system: SF-295 CNS
[55] = system: CCRF-CEM leukemia

CN(C)CCN(C)CC(C)(C)C(=O)/C=C/c1ccc(Cl)c(Cl)c1
GI50 [1]: 1.57 µM
TGI [1]: 2.92 µM
GI50 [2]: 1.93 µM
TGI [2]: 3.35 µM
GI50 [3]: 1.68 µM
TGI [3]: 3.06 µM
GI50 [4]: 0.215 µM
TGI [4]: 0.459 µM
GI50 [5]: 0.51 µM
TGI [5]: 0.902 µM
GI50 [6]: 1.6 µM
TGI [6]: 2.98 µM
GI50 [7]: 1.44 µM
TGI [7]: 2.99 µM
GI50 [8]: 1.47 µM
TGI [8]: 2.79 µM
GI50 [9]: 0.161 µM
TGI [9]: 0.309 µM
GI50 [10]: 1.34 µM
TGI [10]: 2.65 µM
GI50 [11]: 1.52 µM
TGI [11]: 2.87 µM
GI50 [12]: 1.28 µM
TGI [12]: 2.55 µM
GI50 [13]: 1.34 µM
TGI [13]: 2.63 µM
GI50 [14]: 1.82 µM
TGI [14]: 3.25 µM
GI50 [15]: 0.319 µM
TGI [15]: 0.667 µM
GI50 [16]: 1.46 µM
TGI [16]: 2.79 µM
GI50 [17]: 0.796 µM
TGI [17]: 2.05 µM
GI50 [18]: 2.02 µM
TGI [18]: 3.45 µM
GI50 [19]: 1.5 µM
TGI [19]: 2.84 µM
GI50 [20]: 1.36 µM
TGI [20]: 2.65 µM
GI50 [21]: 1.33 µM
TGI [21]: 2.62 µM
GI50 [22]: 1.08 µM
TGI [22]: 2.29 µM
GI50 [23]: 0.292 µM
TGI [23]: 0.644 µM
GI50 [24]: 1.65 µM
TGI [24]: 3.08 µM
GI50 [25]: 1.45 µM
TGI [25]: 2.77 µM
GI50 [26]: 1.51 µM
TGI [26]: 2.86 µM
GI50 [27]: 1.3 µM
TGI [27]: 2.59 µM
GI50 [28]: 1.45 µM
TGI [28]: 2.77 µM
GI50 [29]: 1.19 µM
TGI [29]: 2.43 µM
GI50 [30]: 1.44 µM
TGI [30]: 2.75 µM
GI50 [31]: 1.75 µM
TGI [31]: 3.17 µM
GI50 [32]: 1.51 µM
TGI [32]: 2.85 µM
GI50 [33]: 1.31 µM
TGI [33]: 2.6 µM
GI50 [34]: 1.72 µM
TGI [34]: 3.1 µM
GI50 [35]: 1.69 µM
TGI [35]: 3.08 µM
GI50 [36]: 1.08 µM
TGI [36]: 2.27 µM
GI50 [37]: 1.47 µM
TGI [37]: 2.84 µM
GI50 [38]: 1.41 µM
TGI [38]: 2.72 µM
GI50 [39]: 2.05 µM
TGI [39]: 3.49 µM
GI50 [40]: 1.09 µM
TGI [40]: 2.29 µM
GI50 [41]: 1.23 µM
TGI [41]: 2.53 µM
GI50 [42]: 1.41 µM
TGI [42]: 2.78 µM
GI50 [43]: 1.57 µM
TGI [43]: 2.94 µM
GI50 [44]: 0.81 µM
TGI [44]: 2.06 µM
GI50 [45]: 2 µM
TGI [45]: 3.44 µM
GI50 [46]: 1.64 µM
TGI [46]: 3.02 µM
GI50 [47]: 1.32 µM
TGI [47]: 2.6 µM
GI50 [48]: 1.89 µM
TGI [48]: 3.31 µM
GI50 [49]: 1.72 µM
TGI [49]: 3.13 µM
GI50 [50]: 1.27 µM
TGI [50]: 2.59 µM
GI50 [51]: 1.48 µM
TGI [51]: 2.81 µM
GI50 [52]: 1.35 µM
TGI [52]: 2.64 µM
GI50 [53]: 1.6 µM
TGI [53]: 3 µM
GI50 [54]: 1.56 µM
TGI [54]: 2.94 µM
GI50 [55]: 0.216 µM
TGI [55]: 0.479 µM

Reference: PubChem BioAssay (NCI)
